# Data published in ChEMBL document CHEMBL3885881, “DrugMatrix”.
# Species: Rattus norvegicus
# Test: DrugMatrix - Regimen: Daily Repeat
# Type: toxicity, organism-based, Sprague-Dawley
# Design: regimen Daily Repeat, gender Male, age 6-8 weeks
# Conditions: in vivo, po, 0 mg/kg, route oral GAVAGE, dose level Control, vehicle .5 % CMC; for ABSOLUTE BASOPHIL / ABSOLUTE EOSINOPHIL / ABSOLUTE LYMPHOCYTE / ABSOLUTE MONOCYTE / ABSOLUTE SEGMENTED NEUTROPHIL / BASOPHIL / EOSINOPHIL / ERYTHROCYTE COUNT / HEMATOCRIT / HEMOGLOBIN / LEUKOCYTE COUNT / LYMPHOCYTE / MEAN CORPUSCULAR HEMOGLOBIN / MEAN CORPUSCULAR HEMOGLOBIN CONCENTRATION / MEAN CORPUSCULAR VOLUME / MONOCYTE / NEUTROPHIL / NUCLEATED RED BLOOD CELLS / PLATELET COUNT: tissue Blood; for ALANINE AMINOTRANSFERASE / ALBUMIN / ALKALINE PHOSPHATASE / ASPARTATE AMINOTRANSFERASE / BLOOD UREA NITROGEN / CARBON DIOXIDE / CHLORIDE / CHOLESTEROL / CREATINE PHOSPHOKINASE / CREATININE / GLUCOSE / LACTATE DEHYDROGENASE / LIPASE / PHOSPHORUS / POTASSIUM / SODIUM / TOTAL BILIRUBIN / TOTAL PROTEIN / URIC ACID: tissue Plasma
smiles,measurement,setting,value
CCCCC1C(=O)N(c2ccccc2)N(c2ccccc2)C1=O [PHENYLBUTAZONE],ABSOLUTE BASOPHIL,"72 h, time 3 day",0 CELLS/uL
same,ABSOLUTE EOSINOPHIL,"72 h, time 3 day",35.67 CELLS/uL
same,ABSOLUTE LYMPHOCYTE,"72 h, time 3 day",9125.17 CELLS/uL
same,ABSOLUTE MONOCYTE,"72 h, time 3 day",50.17 CELLS/uL
same,ABSOLUTE SEGMENTED NEUTROPHIL,"72 h, time 3 day",722.33 CELLS/uL
same,BASOPHIL,"72 h, time 3 day",0%
same,EOSINOPHIL,"72 h, time 3 day",0.33%
same,ERYTHROCYTE COUNT,"72 h, time 3 day",5.35 x10E6/uL
same,HEMATOCRIT,"72 h, time 3 day",33.58%
same,HEMOGLOBIN,"72 h, time 3 day",13.35 G/DL
same,LEUKOCYTE COUNT,"72 h, time 3 day",9.93 x10E3/uL
same,LYMPHOCYTE,"72 h, time 3 day",91.67%
same,MEAN CORPUSCULAR HEMOGLOBIN,"72 h, time 3 day",25 pg
same,MEAN CORPUSCULAR HEMOGLOBIN CONCENTRATION,"72 h, time 3 day",39.8 G/DL
same,MEAN CORPUSCULAR VOLUME,"72 h, time 3 day",62.77 fL
same,MONOCYTE,"72 h, time 3 day",0.67%
same,NEUTROPHIL,"72 h, time 3 day",7.33%
same,NUCLEATED RED BLOOD CELLS,"72 h, time 3 day",0 /100WBC
same,PLATELET COUNT,"72 h, time 3 day",866.17 x10E3/uL
same,ALANINE AMINOTRANSFERASE,"72 h, time 3 day",57.17 u/L
same,ALBUMIN,"72 h, time 3 day",4.22 G/DL
same,ALKALINE PHOSPHATASE,"72 h, time 3 day",391 u/L
same,ASPARTATE AMINOTRANSFERASE,"72 h, time 3 day",95.17 u/L
same,BLOOD UREA NITROGEN,"72 h, time 3 day",13.67 mg/dL
same,CARBON DIOXIDE,"72 h, time 3 day",30 mmol/L
same,CHLORIDE,"72 h, time 3 day",102.5 MEQ/L
same,CHOLESTEROL,"72 h, time 3 day",72 mg/dL
same,CREATINE PHOSPHOKINASE,"72 h, time 3 day",485.67 u/L
same,CREATININE,"72 h, time 3 day",0.27 mg/dL
same,GLUCOSE,"72 h, time 3 day",152 mg/dL
same,LACTATE DEHYDROGENASE,"72 h, time 3 day",372.67 u/L
same,LIPASE,"72 h, time 3 day",9.83 u/L
same,PHOSPHORUS,"72 h, time 3 day",12.47 mg/dL
same,POTASSIUM,"72 h, time 3 day",6.81 MEQ/L
same,SODIUM,"72 h, time 3 day",144.1 MEQ/L
same,TOTAL BILIRUBIN,"72 h, time 3 day",0.23 mg/dL
same,TOTAL PROTEIN,"72 h, time 3 day",5.93 G/DL
same,URIC ACID,"72 h, time 3 day",1.9 mg/dL
same,ABSOLUTE BASOPHIL,"120 h, time 5 day",0 CELLS/uL
same,ABSOLUTE EOSINOPHIL,"120 h, time 5 day",67.33 CELLS/uL
same,ABSOLUTE LYMPHOCYTE,"120 h, time 5 day",11419.17 CELLS/uL
same,ABSOLUTE MONOCYTE,"120 h, time 5 day",203.17 CELLS/uL
same,ABSOLUTE SEGMENTED NEUTROPHIL,"120 h, time 5 day",1327 CELLS/uL
same,BASOPHIL,"120 h, time 5 day",0%
same,EOSINOPHIL,"120 h, time 5 day",0.5%
same,ERYTHROCYTE COUNT,"120 h, time 5 day",5.65 x10E6/uL
same,HEMATOCRIT,"120 h, time 5 day",35.3%
same,HEMOGLOBIN,"120 h, time 5 day",13.98 G/DL
same,LEUKOCYTE COUNT,"120 h, time 5 day",13.02 x10E3/uL
same,LYMPHOCYTE,"120 h, time 5 day",88%
same,MEAN CORPUSCULAR HEMOGLOBIN,"120 h, time 5 day",24.78 pg
same,MEAN CORPUSCULAR HEMOGLOBIN CONCENTRATION,"120 h, time 5 day",39.63 G/DL
same,MEAN CORPUSCULAR VOLUME,"120 h, time 5 day",62.58 fL
same,MONOCYTE,"120 h, time 5 day",1.33%
same,NEUTROPHIL,"120 h, time 5 day",10.17%
same,NUCLEATED RED BLOOD CELLS,"120 h, time 5 day",0 /100WBC
same,PLATELET COUNT,"120 h, time 5 day",1213.83 x10E3/uL
same,ALANINE AMINOTRANSFERASE,"120 h, time 5 day",49.67 u/L
same,ALBUMIN,"120 h, time 5 day",4.28 G/DL
same,ALKALINE PHOSPHATASE,"120 h, time 5 day",362.33 u/L
same,ASPARTATE AMINOTRANSFERASE,"120 h, time 5 day",99 u/L
same,BLOOD UREA NITROGEN,"120 h, time 5 day",20.67 mg/dL
same,CARBON DIOXIDE,"120 h, time 5 day",26.33 mmol/L
same,CHLORIDE,"120 h, time 5 day",102 MEQ/L
same,CHOLESTEROL,"120 h, time 5 day",63.83 mg/dL
same,CREATINE PHOSPHOKINASE,"120 h, time 5 day",481.83 u/L
same,CREATININE,"120 h, time 5 day",0.21 mg/dL
same,GLUCOSE,"120 h, time 5 day",158 mg/dL
same,LACTATE DEHYDROGENASE,"120 h, time 5 day",656.33 u/L
same,LIPASE,"120 h, time 5 day",10.67 u/L
same,PHOSPHORUS,"120 h, time 5 day",12.27 mg/dL
same,POTASSIUM,"120 h, time 5 day",6.17 MEQ/L
same,SODIUM,"120 h, time 5 day",143.35 MEQ/L
same,TOTAL BILIRUBIN,"120 h, time 5 day",0.17 mg/dL
same,TOTAL PROTEIN,"120 h, time 5 day",6.13 G/DL
same,URIC ACID,"120 h, time 5 day",1.48 mg/dL
